Results reported in ChEMBL document CHEMBL1817621, “SAR studies of acidic dual γ-secretase/PPARγ modulators” (Bioorg Med Chem, 2011).
pEC50, pIC50: −log10 of the molar value. Activity calls are given as the source filed them. The calls are words filed in the database; no cut-off is given here.

Experiments:
[1] = biological target: T1, Prostaglandin G/H synthase 2 (Homo sapiens) (UniProt P35354); test: Inhibition of human recombinant COX-2 assessed as residual activity by measuring formation of 12-HHT from arachidonic acid at 10 uM by HPLC analysis
T1 sequence (whole entry): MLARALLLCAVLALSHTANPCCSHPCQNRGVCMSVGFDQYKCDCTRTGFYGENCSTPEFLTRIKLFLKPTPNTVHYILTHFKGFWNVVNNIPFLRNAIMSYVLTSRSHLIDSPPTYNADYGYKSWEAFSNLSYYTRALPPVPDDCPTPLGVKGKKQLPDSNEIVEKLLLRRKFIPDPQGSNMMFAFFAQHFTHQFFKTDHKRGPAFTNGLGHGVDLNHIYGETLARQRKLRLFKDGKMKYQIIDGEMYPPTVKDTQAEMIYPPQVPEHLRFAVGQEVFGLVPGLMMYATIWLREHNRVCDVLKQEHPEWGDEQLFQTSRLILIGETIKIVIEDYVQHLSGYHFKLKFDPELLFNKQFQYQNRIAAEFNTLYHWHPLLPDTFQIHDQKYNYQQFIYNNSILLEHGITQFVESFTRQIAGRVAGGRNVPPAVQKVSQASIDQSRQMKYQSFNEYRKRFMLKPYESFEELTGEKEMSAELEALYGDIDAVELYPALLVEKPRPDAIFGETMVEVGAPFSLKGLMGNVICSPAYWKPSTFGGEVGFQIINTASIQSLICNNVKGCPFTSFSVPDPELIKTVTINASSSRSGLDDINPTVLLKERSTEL

[2] = biological target: T2, Peroxisome proliferator-activated receptor delta (Homo sapiens) (UniProt Q03181); test: Modulation of human PPARdelta-LBD expressed in african green monkey COS7 cells co-transfected with Gal4 assessed as activation of transactivation activity at 10 uM by luciferase assay; assay type: cell-based; details: COS-7
T2 sequence (whole entry): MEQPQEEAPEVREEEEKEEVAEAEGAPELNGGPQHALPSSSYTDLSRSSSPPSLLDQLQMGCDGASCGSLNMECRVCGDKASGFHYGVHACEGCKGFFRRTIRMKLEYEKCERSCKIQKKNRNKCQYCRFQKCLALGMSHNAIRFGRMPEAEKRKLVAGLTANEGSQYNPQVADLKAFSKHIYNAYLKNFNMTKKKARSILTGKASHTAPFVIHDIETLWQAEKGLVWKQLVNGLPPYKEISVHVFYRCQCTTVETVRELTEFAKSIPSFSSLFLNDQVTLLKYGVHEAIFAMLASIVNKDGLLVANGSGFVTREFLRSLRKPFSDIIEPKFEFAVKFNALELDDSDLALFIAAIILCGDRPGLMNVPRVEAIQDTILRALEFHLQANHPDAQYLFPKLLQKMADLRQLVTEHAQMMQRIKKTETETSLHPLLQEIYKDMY

[3] = biological target: T3, Prostaglandin G/H synthase 1 (Ovis aries) (UniProt P05979); test: Inhibition of ovine COX-1 assessed as residual activity by measuring formation of 12-HHT from arachidonic acid at 10 uM by HPLC analysis
T3 sequence (whole entry): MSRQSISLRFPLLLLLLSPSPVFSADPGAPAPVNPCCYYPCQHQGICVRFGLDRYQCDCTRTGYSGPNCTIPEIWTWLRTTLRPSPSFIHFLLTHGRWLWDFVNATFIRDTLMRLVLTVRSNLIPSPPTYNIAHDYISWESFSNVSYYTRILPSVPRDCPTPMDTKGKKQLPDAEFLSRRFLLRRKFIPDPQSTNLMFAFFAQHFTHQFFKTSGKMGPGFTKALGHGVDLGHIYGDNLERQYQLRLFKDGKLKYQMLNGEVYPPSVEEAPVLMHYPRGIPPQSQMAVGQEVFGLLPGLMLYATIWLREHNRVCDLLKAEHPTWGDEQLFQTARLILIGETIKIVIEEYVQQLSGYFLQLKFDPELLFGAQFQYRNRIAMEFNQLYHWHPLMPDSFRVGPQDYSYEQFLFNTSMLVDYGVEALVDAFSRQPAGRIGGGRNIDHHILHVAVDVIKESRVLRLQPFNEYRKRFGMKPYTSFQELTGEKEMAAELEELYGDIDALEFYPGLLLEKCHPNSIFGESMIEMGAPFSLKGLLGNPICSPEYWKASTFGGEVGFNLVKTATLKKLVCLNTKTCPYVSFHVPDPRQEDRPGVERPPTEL

[4] = biological target: T4, Peroxisome proliferator-activated receptor alpha (Homo sapiens) (UniProt Q07869); test: Modulation of human PPARalpha-LBD expressed in african green monkey COS7 cells co-transfected with Gal4 assessed as activation of transactivation activity at 10 uM by luciferase assay; assay type: cell-based; details: COS-7
T4 sequence (whole entry): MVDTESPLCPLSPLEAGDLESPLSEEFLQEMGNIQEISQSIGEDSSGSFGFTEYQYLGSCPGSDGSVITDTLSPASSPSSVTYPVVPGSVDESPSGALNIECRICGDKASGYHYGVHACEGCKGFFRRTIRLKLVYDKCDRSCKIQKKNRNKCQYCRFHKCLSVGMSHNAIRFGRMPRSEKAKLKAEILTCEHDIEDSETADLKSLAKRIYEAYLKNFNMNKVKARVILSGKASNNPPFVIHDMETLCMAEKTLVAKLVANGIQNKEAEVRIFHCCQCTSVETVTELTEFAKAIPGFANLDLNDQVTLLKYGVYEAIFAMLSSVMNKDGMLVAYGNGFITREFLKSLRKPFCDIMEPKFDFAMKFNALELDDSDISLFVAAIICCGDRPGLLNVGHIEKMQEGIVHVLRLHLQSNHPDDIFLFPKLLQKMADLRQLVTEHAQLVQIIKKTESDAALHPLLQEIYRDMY

[5] = Modulation of gamma-secretase expressed in CHO cells co-expressing human APP and wild type human presenilin-1 assessed as reduction of amyloid beta38 production by ELISA
[6] = biological target: T5, Peroxisome proliferator-activated receptor gamma (Homo sapiens) (UniProt P37231); test: Modulation of human PPARgamma-LBD expressed in african green monkey COS7 cells co-transfected with Gal4 assessed as activation of transactivation activity at 10 uM by luciferase assay; assay type: cell-based; details: COS-7
T5 sequence (whole entry): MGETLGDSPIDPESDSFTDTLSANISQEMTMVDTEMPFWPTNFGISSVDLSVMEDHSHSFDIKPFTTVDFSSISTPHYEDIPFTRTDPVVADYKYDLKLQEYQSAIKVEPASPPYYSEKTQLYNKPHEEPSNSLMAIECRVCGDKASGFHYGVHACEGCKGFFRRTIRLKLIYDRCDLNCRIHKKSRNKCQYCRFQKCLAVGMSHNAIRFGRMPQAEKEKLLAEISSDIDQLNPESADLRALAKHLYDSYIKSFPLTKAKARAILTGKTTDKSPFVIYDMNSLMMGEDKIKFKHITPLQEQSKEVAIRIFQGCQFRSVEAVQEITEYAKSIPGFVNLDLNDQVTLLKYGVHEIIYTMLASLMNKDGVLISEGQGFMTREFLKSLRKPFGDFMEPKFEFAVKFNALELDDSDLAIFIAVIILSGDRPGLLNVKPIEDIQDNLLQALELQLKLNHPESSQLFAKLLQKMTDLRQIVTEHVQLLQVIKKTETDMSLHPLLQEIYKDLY

[7] = tested on: CHO; test: Cytotoxicity against CHO cells expressing human APP and wild type human presenilin-1 assessed as reduction of cell viability up to 40 uM after 24 hrs by Alamar blue assay; assay type: cell-based, Cricetulus griseus; details: chinese hamster
[8] = tested on: CHO; test: Inhibition of gamma-secretase-mediated notch signaling expressed in CHO cells transfected with Gal4-DNA-binding/VP16 transactivation domain assessed as reduction of reporter activity up to 30 uM by luciferase assay; assay type: cell-based
[9] = Selectivity ratio of inhibition of gamma-secretase-mediated notch signaling to modulation of gamma-secretase
[10] = Modulation of gamma-secretase expressed in CHO cells co-expressing human APP and wild type human presenilin-1 assessed as increase of amyloid beta38 production by ELISA; assay type: cell-based
[11] = Modulation of gamma-secretase expressed in CHO cells co-expressing human APP and wild type human presenilin-1 assessed as inhibition of amyloid beta42 production by ELISA; assay type: cell-based
[12] = biological target: T6, Prostaglandin G/H synthase 1 (Ovis aries, UniProt P05979)
T6 sequence (P05979 whole entry): T3 sequence (whole entry)
Description: Inhibition of ovine COX-1 assessed as residual activity by measuring formation of 12-HHT from arachidonic acid by HPLC analysis

Activity [1] [%] | Activity [2] | Activity [3] [%] | Activity [4] | pIC50 [5] | Activity [6] | Ratio [9] | pEC50 [10] | pIC50 [11] | pIC50 [12] | Compound | Activity [7] | inhibition [8]
110 | inactive | 99.1 | inactive | 5.30 | inactive |  |  |  |  | CCCCC(Cc1ccc(OCCc2ccccc2)cc1OCCc1ccccc1)C(=O)O (stereo not drawn) | Non-toxic | 
123 | inactive | 76.4 | inactive |  | 75% | 8 | 5.51 | 5.41 |  | CCCC/C(=C\c1cc(OCCC2CCCCC2)ccc1OCCC1CCCCC1)C(=O)O | Non-toxic | inactive
 |  |  |  |  |  |  |  |  | 4.78 | CCCCC(Sc1nc(OCCc2ccccc2)cc(OCCc2ccccc2)n1)C(=O)O (stereo not drawn) |  | 
